# In paper PMC4507497 (Chemistry & biology, 2015):
# Several values for one entry are separate records, joined by “and”; a condition that tells them apart may be missing. Identical values can stand only once. No end group written: not given here.
# Key:
# [1] = tested on: three tested frog ORs; experiment: cAMP inhibition, the three tested frog ORs; type: cell-based, Rana pipiens; conditions: frog KOR, MOR, DOR; cAMP assay
# [2] = molecular target: h-rpMOR-E3h; experiment: Competition binding with radiolabeled diprenorphine, h-rpMOR-E3h; design: species or system human / Rana pipiens; conditions: Table 3, [3H]-diprenorphine competition
# [3] = tested on: h-rpMOR-E2h (h-rpMOR-EL2h); experiment: Inhibition of isoproterenol-stimulated cAMP response, chimera h-rpMOR-E2h; type: cell-based, human / Rana pipiens; conditions: for EC50 / log EC50 ±SEM: Table 3, h-rpMOR-E2h, HEK 293T cells
# [4] = molecular target: h-rpMOR-E2h (h-rpMOR EL2h); experiment: Competition binding with radiolabeled diprenorphine, h-rpMOR-E2h; design: species or system human / Rana pipiens; conditions: Table 3, [3H]-diprenorphine competition
# [5] = molecular target: rpMOR; experiment: Competition binding with radiolabeled diprenorphine, rpMOR; design: species or system Rana pipiens; conditions: Table 3, [3H]-diprenorphine competition
# [6] = molecular target: h-rpMOR-wt; experiment: Competition binding with radiolabeled diprenorphine, h-rpMOR-wt; design: species or system human / Rana pipiens; conditions: Table 3, [3H]-diprenorphine competition
# [7] = tested on: h-rpMOR-wt (rpMOR with humanized N-terminus); experiment: Inhibition of isoproterenol-stimulated cAMP response, chimera h-rpMOR-wt; type: cell-based, human / Rana pipiens; conditions: Table 3, HEK 293T cells
# [8] = molecular target: Frog MOR (rpMOR) (Lithobates pipiens, UniProt Q7T069); experiment: cell-based; design: species or system Rana pipiens
# Frog MOR (rpMOR), sequence (Q7T069 1-388): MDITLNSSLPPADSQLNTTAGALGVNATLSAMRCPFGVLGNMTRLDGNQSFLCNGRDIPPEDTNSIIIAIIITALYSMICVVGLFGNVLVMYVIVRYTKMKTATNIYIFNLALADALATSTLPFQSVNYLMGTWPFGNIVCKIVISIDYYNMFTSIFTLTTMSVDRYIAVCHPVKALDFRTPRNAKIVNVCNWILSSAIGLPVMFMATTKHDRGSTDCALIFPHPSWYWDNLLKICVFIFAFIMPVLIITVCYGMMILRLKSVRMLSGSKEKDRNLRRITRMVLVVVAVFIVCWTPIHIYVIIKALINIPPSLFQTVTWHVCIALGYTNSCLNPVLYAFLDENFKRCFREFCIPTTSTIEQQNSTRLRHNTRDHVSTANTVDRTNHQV
# [9] = molecular target: Frog KOR (Lithobates pipiens, UniProt B0JCV9); experiment: Inhibition of isoproterenol-induced cAMP production; type: cell-based, Rana pipiens
# Frog KOR, sequence (B0JCV9 1-390): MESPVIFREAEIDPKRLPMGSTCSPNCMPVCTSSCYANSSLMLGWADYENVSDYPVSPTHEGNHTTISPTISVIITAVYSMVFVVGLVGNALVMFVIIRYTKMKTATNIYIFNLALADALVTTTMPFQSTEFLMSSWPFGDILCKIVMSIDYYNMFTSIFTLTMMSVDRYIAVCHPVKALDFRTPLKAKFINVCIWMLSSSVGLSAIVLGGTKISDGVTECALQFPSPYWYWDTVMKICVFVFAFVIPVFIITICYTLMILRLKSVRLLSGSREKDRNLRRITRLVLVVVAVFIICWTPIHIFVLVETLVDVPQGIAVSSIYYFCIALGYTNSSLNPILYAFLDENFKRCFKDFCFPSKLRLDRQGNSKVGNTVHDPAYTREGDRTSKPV
# [10] = tested on: h-rpMOR-E3h (h-rpMOR-EL3h); experiment: Inhibition of isoproterenol-stimulated cAMP response, chimera h-rpMOR-E3h; type: cell-based, human / Rana pipiens; conditions: for EC50 / log EC50 ±SEM: Table 3, h-rpMOR-E3h, HEK 293T cells
# [11] = tested on: ORs in the brains and spinal cord; conditions: Rana pipiens tissue; cited from earlier work
# [12] = molecular target: Human KOR (Homo sapiens, UniProt P41145); experiment: cell-based
# Human KOR, sequence (P41145 whole entry): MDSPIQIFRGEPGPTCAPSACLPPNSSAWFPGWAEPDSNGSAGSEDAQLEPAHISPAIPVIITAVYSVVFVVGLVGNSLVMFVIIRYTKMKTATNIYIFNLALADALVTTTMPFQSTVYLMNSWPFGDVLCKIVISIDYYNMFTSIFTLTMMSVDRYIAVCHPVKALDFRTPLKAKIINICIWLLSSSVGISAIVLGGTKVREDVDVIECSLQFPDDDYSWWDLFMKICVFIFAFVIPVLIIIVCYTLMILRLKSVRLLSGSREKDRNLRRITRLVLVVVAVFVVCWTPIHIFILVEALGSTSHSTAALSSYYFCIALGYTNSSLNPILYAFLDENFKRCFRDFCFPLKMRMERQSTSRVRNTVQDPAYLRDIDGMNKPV
# [13] = molecular target: Human DOR (Homo sapiens, UniProt P41143); experiment: cell-based
# Human DOR, sequence (P41143 whole entry): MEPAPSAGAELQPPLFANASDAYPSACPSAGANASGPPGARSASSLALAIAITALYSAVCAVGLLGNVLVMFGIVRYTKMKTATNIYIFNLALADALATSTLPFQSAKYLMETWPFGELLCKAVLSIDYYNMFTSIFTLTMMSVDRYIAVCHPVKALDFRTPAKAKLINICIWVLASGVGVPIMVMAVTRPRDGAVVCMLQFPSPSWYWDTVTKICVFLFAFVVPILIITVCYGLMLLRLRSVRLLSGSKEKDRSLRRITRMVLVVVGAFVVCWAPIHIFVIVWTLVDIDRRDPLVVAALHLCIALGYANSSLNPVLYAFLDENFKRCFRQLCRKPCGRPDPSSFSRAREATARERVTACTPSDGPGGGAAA
# [14] = tested on: Frog DOR; type: cell-based, Rana pipiens; conditions: Table 2, HEK 293T cells; for EC50: NA = not active
# [15] = tested on: rpDOR Trp301Leu (7.35); experiment: Functional and binding studies, rpDOR mutant Trp301Leu; type: cell-based, Rana pipiens
# [16] = tested on: rpDOR mutants Met287Leu, Asn294Asp and Tyr296Leu; experiment: Functional studies, rpDOR mutants Met287Leu, Asn294Asp and Tyr296Leu; type: cell-based, Rana pipiens; conditions: data not shown
# [17] = tested on: human DOR (Leu300Trp); experiment: Inhibition of cAMP response, hDOR Leu300Trp mutant; type: cell-based; conditions: hDOR Leu300Trp vs hDOR
# [18] = tested on: human DOR; conditions: human (but not murine) DOR; cited from earlier work
# [19] = relative to chimera with humanized N-terminus only
compound,measurement,setting,value
"CC(C)[C@H](NC(=O)[C@H](CC(=O)O)NC(=O)[C@H](Cc1ccccc1)NC(=O)[C@@H](C)NC(=O)[C@@H](N)Cc1ccc(O)cc1)C(=O)N[C@H](C(=O)NCC(N)=O)C(C)C [Deltorphin C, Tyr-D-Ala-Phe-Asp-Val-Val-Gly-NH2]",agonist activity at the three tested frog ORs,[1],inactive
"C[C@@H](NC(=O)[C@@H](N)Cc1ccc(O)cc1)C(=O)NCC(=O)N(C)[C@@H](Cc1ccccc1)C(=O)NCCO [DAMGO, [D-Ala^2,N-MePhe^4,Gly-ol]-enkephalin]",Ki,[2],120 nM
same,EC50,[3],81 nM
same,log EC50 ±SEM,[3],−7.1 ± 0.07 M
same,Ki,[4],80 nM
same,Ki,[5],160 nM
same,Ki,[6],100 nM
same,EC50,[7],96 nM
same,log EC50 ±SEM,[7],−7.0 ± 0.08 M
same,EC50,[8]; EC50,1500 nM and 1900 nM
same,EC50,[8]; log EC50 ±SEM,1580 nM and 2000 nM
same,EC50,"[9]; EC50, Table 2, HEK 293T cells, NA = not active",2400 nM
same,EC50,"[9]; log EC50 ±SEM, Table 2, HEK 293T cells",2510 nM
same,EC50,[10],22 nM
same,log EC50 ±SEM,[10],−7.7 ± 0.07 M
C[C@@H](NC(=O)[C@@H](N)Cc1ccc(O)cc1)C(=O)N[C@@H](Cc1ccccc1)C(=O)NCC(=O)N[C@@H](Cc1ccc(O)cc1)C(=O)N1CCC[C@H]1C(=O)N[C@@H](CO)C(N)=O [Dermorphin],EC50,[3],40 nM
same,log EC50 ±SEM,[3],−7.4 ± 0.07 M
same,enhancement of receptor activation by humanization of EL2,[3]; [19],~ 10 fold
same,affinities to ORs in the brains and spinal cord,[11],30 to 80 µM
same,Ki,[4],112 nM
same,Ki,[5],1640 nM
same,EC50,[7],230 nM
same,log EC50 ±SEM,[7],−6.7 ± 0.08 M
same,EC50,[10],130 nM
same,log EC50 ±SEM,[10],−6.9 ± 0.1 M
same,enhancement of receptor activation by humanization of EL3,[10]; [19],~ 2 fold
YGGFLRKYPK [α-Neoendorphin],EC50,[12]; EC50,11 nM
same,EC50,[12]; log EC50 ±SEM,10 nM
same,EC50,[13]; EC50,1600 nM
same,EC50,[13]; log EC50 ±SEM,1580 nM
same,fold less potent at the frog KOR,[9],10 fold
same,EC50,[9]; EC50,78 nM
same,EC50,[9]; log EC50 ±SEM,79.4 nM
same,log EC50 ±SEM,[14],−5.8±0.08 logM
same,EC50,[14],1600 nM
"CC(C)C[C@@H](NC(=O)[C@H](Cc1ccccc1)NC(=O)CNC(=O)[C@@H](C)NC(=O)[C@@H](N)Cc1ccc(O)cc1)C(=O)O [DADLE, [D-Ala^2,D-Leu^5]-enkephalin]",EC50,[8]; EC50,480 nM
same,EC50,[8]; log EC50 ±SEM,501 nM
same,log EC50 ±SEM,[14],−6.5±0.06 logM
same,EC50,[14],353 nM
NC(=O)[C@H](Cc1ccccc1)NC(=O)[C@H](Cc1c[nH]c2ccccc12)NC(=O)[C@@H]1CCCN1C(=O)[C@@H](N)Cc1ccc(O)cc1 [Endomorphin 1],EC50,[3],95 nM
same,EC50,[7],43 nM
same,log EC50 ±SEM,[7],−7.4 ± 0.07 M
same,EC50,[8]; EC50,381 nM and 360 nM
same,EC50,[8]; log EC50 ±SEM,398 nM and 316 nM
deltorphin,affinities to ORs in the brains and spinal cord,[11],30 to 80 µM
same,response of the mutant compared to rpDOR,[15],substantially increased potency and affinity
same,response of the mutants,[16],did not respond
same,decrease of potency by the L300W mutation,[17],~2000 fold
DIPP-NH2,agonist activity,[18],weak partial agonist activity
NC(=O)[C@H](Cc1ccccc1)NC(=O)[C@H](Cc1ccccc1)NC(=O)[C@@H]1CCCN1C(=O)[C@@H](N)Cc1ccc(O)cc1 [Endomorphin 2],EC50,[3],190 nM
same,log EC50 ±SEM,[3],−6.7 ± 0.32 M
same,EC50,[7],93 nM
same,EC50,[8]; EC50,782 nM and 920 nM
same,EC50,[8]; log EC50 ±SEM,794 nM and 1000 nM
same,EC50,[10],32 nM
YGGFIRKPDKYKFLNA [Xendorphin],activity at frog and human KORs compared,[9],equally active
CC(C)C[C@H](NC(=O)[C@H](Cc1ccccc1)NC(=O)CNC(=O)CNC(=O)[C@@H](N)Cc1ccc(O)cc1)C(=O)N[C@@H](CCCN=C(N)N)C(=O)N[C@@H](CCCN=C(N)N)C(=O)N[C@@H](CCC(N)=O)C(=O)N[C@@H](Cc1ccccc1)C(=O)N[C@@H](CCCCN)C(=O)N[C@H](C(=O)N[C@H](C(=O)N[C@H](C(=O)O)[C@@H](C)O)C(C)C)C(C)C [Dynorphin B],EC50,[13]; EC50,360 nM
same,EC50,[13]; log EC50 ±SEM,398 nM
same,EC50,[8]; EC50,5200 nM
same,EC50,[8]; log EC50 ±SEM,5010 nM
same,EC50,[9]; EC50,170 nM
same,EC50,[9]; log EC50 ±SEM,158 nM
